# Data published in PubChem BioAssay AID180 (DTP/NCI, 2004).
# Where “and” joins values, the source holds several entries; their conditions need not be identical. Equal values may be shown once.
# Test system: BDF1 mice, Adenocarcinoma 755 s.c., tumor weight T/C
# Assay: NCI In Vivo Anticancer Drug Screen. Data for tumor model Adenocarcinoma 755 (subcutaneous) in B6D2F1 (BDF1) mice
# Conditions: endpoint: mean tumor weight, higher = larger tumour
# Procedure, shortened: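 Tumor-bearing mice receive test compound while controls get vehicle alone. Antitumor effect is scored from survival or tumor dimensions as a T/C quotient.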
# [1] = dose: 120.0 mg/kg/injection, schedule: Q01DX011 (ip), vehicle: saline
# [2] = dose: 240.0 mg/kg/injection, schedule: Q01DX011 (ip), vehicle: saline
smiles,measurement,setting,value
Nc1c(Br)cc2c(c1Br)Cc1cc(Br)ccc1-2,T/C,"dose: 3.75 mg/kg/injection, schedule: Q#A X022 (ip), vehicle: saline",77 % of control
same,T/C,"dose: 7.5 mg/kg/injection, schedule: Q#A X022 (ip), vehicle: saline",50 % of control
same,T/C,"dose: 15.0 mg/kg/injection, schedule: Q01DX011 (im), vehicle: saline",46 % of control
same,T/C,"dose: 15.0 mg/kg/injection, schedule: Q01DX011 (sc), vehicle: saline",58 % of control
same,T/C,"dose: 15.0 mg/kg/injection, schedule: Q#A X022 (ip), vehicle: saline",40 % of control
same,T/C,"dose: 15.5 mg/kg/injection, schedule: Q01DX011 (ip), vehicle: saline",74 % of control
same,T/C,"dose: 21.8 mg/kg/injection, schedule: Q01DX011 (ip), vehicle: saline",59 % of control and 69 % of control
same,T/C,"dose: 30.0 mg/kg/injection, schedule: Q01DX011 (im), vehicle: saline",48 % of control
same,T/C,"dose: 30.0 mg/kg/injection, schedule: Q01DX011 (sc), vehicle: saline",52 % of control
same,T/C,"dose: 30.0 mg/kg/injection, schedule: Q#A X022 (ip), vehicle: saline",40 % of control
same,T/C,"dose: 31.2 mg/kg/injection, schedule: Q01DX011 (ip), vehicle: saline",75 % of control
same,T/C,"dose: 43.7 mg/kg/injection, schedule: Q01DX011 (ip), vehicle: saline",18 % of control and 36 % of control
same,T/C,"dose: 45.0 mg/kg/injection, schedule: Q03DX004 (ip), vehicle: saline",67 % of control
same,T/C,"dose: 60.0 mg/kg/injection, schedule: Q01DX011 (im), vehicle: saline",40 % of control
same,T/C,"dose: 60.0 mg/kg/injection, schedule: Q01DX011 (ip), vehicle: saline",24 % of control
same,T/C,"dose: 60.0 mg/kg/injection, schedule: Q01DX011 (sc), vehicle: saline",41 % of control
same,T/C,"dose: 60.0 mg/kg/injection, schedule: Q#A X022 (ip), vehicle: saline",28 % of control
same,T/C,"dose: 62.5 mg/kg/injection, schedule: Q01DX011 (ip), vehicle: saline",63 % of control
same,T/C,"dose: 87.5 mg/kg/injection, schedule: Q01DX011 (ip), vehicle: saline",33 % of control and 35 % of control
same,T/C,"dose: 90.0 mg/kg/injection, schedule: Q03DX004 (ip), vehicle: saline",66 % of control
same,T/C,"dose: 100.0 mg/kg/injection, schedule: Q01DX001 (ip), vehicle: saline",80 % of control and 87 % of control
same,T/C,"dose: 100.0 mg/kg/injection, schedule: Q07DX002 (ip), vehicle: saline",78 % of control
same,T/C,"dose: 120.0 mg/kg/injection, schedule: Q01DX001 (ip), vehicle: saline",56 % of control
same,T/C,"dose: 120.0 mg/kg/injection, schedule: Q01DX011 (im), vehicle: saline",45 % of control
same,T/C,[1],17 % of control
same,T/C,"dose: 120.0 mg/kg/injection, schedule: Q01DX011 (oral), vehicle: saline",26 % of control
same,T/C,"dose: 120.0 mg/kg/injection, schedule: Q01DX011 (sc), vehicle: saline",46 % of control
same,T/C,"dose: 120.0 mg/kg/injection, schedule: Q#A X022 (ip), vehicle: saline",34 % of control
same,T/C,"dose: 125.0 mg/kg/injection, schedule: Q01DX011 (ip), vehicle: saline",36 % of control
same,T/C,"dose: 125.0 mg/kg/injection, schedule: Q01DX011 (oral), vehicle: saline",74 % of control
same,T/C,"dose: 175.0 mg/kg/injection, schedule: Q01DX011 (ip), vehicle: other",33 % of control
same,T/C,"dose: 175.0 mg/kg/injection, schedule: Q01DX011 (ip), vehicle: saline",27 % of control and 33 % of control
same,T/C,"dose: 180.0 mg/kg/injection, schedule: Q03DX004 (ip), vehicle: saline",58 % of control
same,T/C,"dose: 200.0 mg/kg/injection, schedule: Q01DX001 (ip), vehicle: saline",74 % of control and 75 % of control
same,T/C,"dose: 200.0 mg/kg/injection, schedule: Q07DX002 (ip), vehicle: saline",71 % of control
same,T/C,"dose: 240.0 mg/kg/injection, schedule: Q01DX001 (ip), vehicle: saline",44 % of control
same,T/C,[2],16 % of control
same,T/C,"dose: 240.0 mg/kg/injection, schedule: Q01DX011 (oral), vehicle: saline",23 % of control
same,T/C,"dose: 250.0 mg/kg/injection, schedule: Q01DX011 (ip), vehicle: saline",52 % of control
same,T/C,"dose: 250.0 mg/kg/injection, schedule: Q01DX011 (oral), vehicle: saline",64 % of control
same,T/C,"dose: 350.0 mg/kg/injection, schedule: Q01DX011 (ip), vehicle: other",16 % of control
same,T/C,"dose: 360.0 mg/kg/injection, schedule: Q03DX004 (ip), vehicle: saline",54 % of control
same,T/C,"dose: 400.0 mg/kg/injection, schedule: Q01DX001 (ip), vehicle: saline",54 % of control and 65 % of control
same,T/C,"dose: 400.0 mg/kg/injection, schedule: Q07DX002 (ip), vehicle: saline",51 % of control
same,T/C,"dose: 480.0 mg/kg/injection, schedule: Q01DX001 (ip), vehicle: saline",26 % of control
same,T/C,"dose: 480.0 mg/kg/injection, schedule: Q01DX011 (im), vehicle: saline",33 % of control
same,T/C,"dose: 480.0 mg/kg/injection, schedule: Q01DX011 (ip), vehicle: saline",16 % of control
same,T/C,"dose: 480.0 mg/kg/injection, schedule: Q01DX011 (oral), vehicle: saline",24 % of control
same,T/C,"dose: 480.0 mg/kg/injection, schedule: Q01DX011 (sc), vehicle: saline",30 % of control
same,T/C,"dose: 500.0 mg/kg/injection, schedule: Q01DX011 (ip), vehicle: saline",58 % of control
same,T/C,"dose: 500.0 mg/kg/injection, schedule: Q01DX011 (oral), vehicle: saline",57 % of control
same,T/C,"dose: 700.0 mg/kg/injection, schedule: Q01DX011 (ip), vehicle: other",34 % of control
same,T/C,"dose: 720.0 mg/kg/injection, schedule: Q03DX004 (ip), vehicle: saline",24 % of control
same,T/C,"dose: 800.0 mg/kg/injection, schedule: Q01DX001 (ip), vehicle: saline",60 % of control and 80 % of control
same,T/C,"dose: 800.0 mg/kg/injection, schedule: Q07DX002 (ip), vehicle: saline",51 % of control
same,T/C,"dose: 960.0 mg/kg/injection, schedule: Q01DX001 (ip), vehicle: saline",31 % of control
same,T/C,"dose: 960.0 mg/kg/injection, schedule: Q01DX011 (im), vehicle: saline",29 % of control
same,T/C,"dose: 960.0 mg/kg/injection, schedule: Q01DX011 (oral), vehicle: saline",25 % of control
same,T/C,"dose: 960.0 mg/kg/injection, schedule: Q01DX011 (sc), vehicle: saline",25 % of control
same,T/C,"dose: 1000.0 mg/kg/injection, schedule: Q01DX011 (ip), vehicle: saline",47 % of control
same,T/C,"dose: 1000.0 mg/kg/injection, schedule: Q01DX011 (oral), vehicle: saline",43 % of control
same,T/C,"dose: 1440.0 mg/kg/injection, schedule: Q03DX004 (ip), vehicle: saline",29 % of control
same,T/C,"dose: 2000.0 mg/kg/injection, schedule: Q01DX011 (ip), vehicle: saline",40 % of control
same,T/C,"dose: 2000.0 mg/kg/injection, schedule: Q01DX011 (oral), vehicle: saline",36 % of control
same,T/C,"dose: 3000.0 mg/kg/injection, schedule: Q01DX011 (oral), vehicle: saline",56 % of control
c1ccn(-c2nc(-n3cccc3)nc(-n3cccc3)n2)c1,T/C,"dose: 31.25 mg/kg/injection, schedule: Q01DX011 (ip), vehicle: carboxymethylcellulose (CMC)",72 % of control
same,T/C,"dose: 62.5 mg/kg/injection, schedule: Q01DX011 (ip), vehicle: carboxymethylcellulose (CMC)",86 % of control
same,T/C,"dose: 125.0 mg/kg/injection, schedule: Q01DX011 (ip), vehicle: carboxymethylcellulose (CMC)",73 % of control
same,T/C,"dose: 250.0 mg/kg/injection, schedule: Q01DX011 (ip), vehicle: carboxymethylcellulose (CMC)",17 % of control and 38 % of control
Cn1cnc2c(ncn2C2CC(O)C(CO)O2)c1=O (stereo not drawn),T/C,[1],105 % of control
same,T/C,[2],98 % of control
C[C@]12CCC(=O)C=C1CC[C@@H]1[C@@H]2[C@@H](O)C[C@@]2(C)[C@H]1CC[C@]2(O)C(=O)CO,T/C,"dose: 2.5 mg/kg/injection, schedule: Q01DX011 (sc), vehicle: steriod suspending solution",96 % of control
same,T/C,"dose: 4.0 mg/kg/injection, schedule: Q01DX011 (sc), vehicle: steriod suspending solution",49 % of control
same,T/C,"dose: 5.0 mg/kg/injection, schedule: Q01DX011 (sc), vehicle: steriod suspending solution",110 % of control
same,T/C,"dose: 8.7 mg/kg/injection, schedule: Q01DX011 (sc), vehicle: steriod suspending solution",49 % of control
same,T/C,"dose: 10.0 mg/kg/injection, schedule: Q01DX011 (sc), vehicle: steriod suspending solution",56 % of control
same,T/C,"dose: 17.5 mg/kg/injection, schedule: Q01DX011 (sc), vehicle: steriod suspending solution",32 % of control
same,T/C,"dose: 20.0 mg/kg/injection, schedule: Q01DX011 (sc), vehicle: steriod suspending solution",32 % of control and 34 % of control
same,T/C,"dose: 35.0 mg/kg/injection, schedule: Q01DX011 (sc), vehicle: steriod suspending solution",24 % of control
same,T/C,"dose: 40.0 mg/kg/injection, schedule: Q01DX011 (sc), vehicle: steriod suspending solution",11 % of control
same,T/C,"dose: 70.0 mg/kg/injection, schedule: Q01DX011 (sc), vehicle: steriod suspending solution",8 % of control
same,T/C,"dose: 80.0 mg/kg/injection, schedule: Q01DX011 (sc), vehicle: steriod suspending solution",13 % of control
same,T/C,"dose: 140.0 mg/kg/injection, schedule: Q01DX011 (sc), vehicle: steriod suspending solution",1 % of control
